In the test the target is human Lck kinase (UniProt P06239). Description: Lck inhibition assay (A: radioactivity-based or B: spectrophotometric coupled-enzyme assay). The format is biochemical. To be noted: read-out: Lck Activity (Ki rating). The method, then:
The compounds were evaluated as inhibitors of human Lck kinase using either a radioactivity-based assay or spectrophotometric assay.
The compounds were assayed as inhibitors of full length bovine thymus Lck kinase (from Upstate Biotechnology, cat. no. 14-106) expressed and purified from baculo viral cells. Lck kinase activity was monitored by following the incorporation of ^33p from ATP into the tyrosine of a random poly Glu-Tyr polymer substrate of composition, Glu:Tyr=4:1 (Sigma, cat. no. P-0275). The following were the final concentrations of the assay components: 0.025 M HEPES, pH 7.6, 10 mM MgCl2, 2 mM DTT, 0.25 mg/ml BSA, 10 μM ATP (1-2 μCi ^33P-ATP per reaction), 5 mg/ml poly Glu-Tyr, and 1-2 units of recombinant human […] kinase. In a typical assay, all the reaction components with the exception of ATP were pre-mixed and aliquoted into assay plate wells. Inhibitors dissolved in DMSO were added to the wells to give a final DMSO concentration of 2.5%. The assay plate was incubated at 30 C. for 10 min before initiating the reaction with ^33P-ATP. After 20 min of reaction, the reactions were quenched with 150 μl of 10% trichloroacetic acid (TCA) containing 20 mM Na3PO4. The quenched samples were then transferred to a 96-well filter plate (Whatman, UNI-Filter GF/F Glass Fiber Filter, cat no. 7700-3310) installed on a filter plate vacuum manifold. Filter plates were washed four times with 10% TCA containing 20 mM Na3PO4 and then 4 times with methanol. 200 μl of scintillation fluid was then added to each well. The plates were sealed and the amount of radioactivity associated with the filters was quantified on a TopCount scintillation counter. The radioactivity incorporated was plotted as a function of the inhibitor concentration. The data was fitted to a competitive inhibition kinetics model to get the Ki for the compound.
The ADP produced from ATP by the human recombinant Lck kinase-catalyzed phosphorylation of poly Glu-Tyr substrate was quanitified using a coupled enzyme assay (Fox et al (1998) Protein Sci 7, 2249). In this assay one molecule of NADH is oxidised to NAD for every molecule of ADP produced in the kinase reaction. The disappearance of NADH can be conveniently followed at 340 nm.
The following were the final concentrations of the assay components: 0.025 M HEPES, pH 7.6, 10 mM MgCl2, 2 mM DTT, 5 mg/ml poly Glu-Tyr, and 50 nM of recombinant human Lck kinase. Final concentrations of the components of the coupled enzyme system were 2.5 mM phosphoenolpyruvate, 200 μM NADH, 30 μg/ml pyruvate kinase and 10 μg/ml lactate dehydrogenase.
In a typical assay, all the reaction components with the exception of ATP were pre-mixed and aliquoted into assay plate wells. Inhibitors dissolved in DMSO were added to the wells to give a final DMSO concentration of 2.5%. The assay plate was incubated at 30° C. for 10 min before initiating the reaction with 150 μM ATP. The absorbance change at 340 nm with time, the rate of the reaction, was monitored on a molecular devices plate reader. The data of rate as a function of the inhibitor concentration was fitted to competitive inhibition kinetics model to get the Ki for the compound.

Each structure is given as a SMILES string. Some results are limits rather than exact numbers.

One may read the Ki as a dissociation constant, usually derived from enzyme kinetics or from competition with a known ligand. With `CSc1sc(-c2ccnc(Nc3cccc(NC(=O)Cc4ccccn4)c3)n2)c(-c2cccnc2)c1C#N` [VI-136], the Ki was less than 100 nM.
The value for `CSc1sc(-c2ccnc(Nc3cccc(OCCCn4ccnc4)c3)n2)c(C2CCCCC2)c1C#N` [VI-13] was less than 100 nM; that for `CSc1sc(-c2ccnc(Nc3cccc(NC(=O)Cc4csc(N)n4)c3)n2)c(-c2cccnc2)c1C#N` [VI-137] was less than 100 nM; that for `CSc1sc(-c2ccnc(Nc3cccc(OCCCN4CCSC4)c3)n2)c(C2CCCCC2)c1C#N` [VI-17] was less than 100 nM.
Take `CSc1sc(-c2ccnc(Nc3cccc(OCCCN(C)CCO)c3)n2)c(C2CCCCC2)c1C#N` [VI-1]: the Ki is less than 100 nM.
The value for `CSc1sc(-c2ccnc(Nc3cccc(OCCCO)c3)n2)c(-c2cccnc2)c1C#N` [VI-121] was 100 to 1000 nM.
For the molecule `CSc1sc(-c2ccnc(Nc3cccc(S(N)(=O)=O)c3)n2)c(-c2ccccc2)c1C#N` [IIa-38, 3-[4-(4-cyano-5-methylsulfanyl-3-phenyl-thiophen-2-yl)-pyrimidin-2-ylamino]-benzenesulfonamide], the Ki is less than 100 nM.
`CSc1sc(-c2ccnc(Nc3cccc(OCCCN4CCC(CO)CC4)c3)n2)c(C2CCCCC2)c1C#N` [VI-5]: the inhibition constant (Ki) is less than 100 nM.
On to `CSc1sc(-c2ccnc(Nc3cccc(OCCCN4CCOCC4)c3)n2)c(C2CCCCC2)c1C#N` [VI-15], for which the inhibition constant Ki was less than 100 nM.
The value for `CSc1sc(-c2ccnc(Nc3cccc(OCCCN4CCNCC4)c3)n2)c(-c2cccnc2)c1C#N` [VI-123] was 100 to 1000 nM.
As to `CSc1sc(-c2ccnc(Nc3cccc(OCCCN4CCNCC4)c3)n2)c(-c2cccc(OCc3ccccc3)c2)c1C#N` [VI-125], the Ki lay in the range of 100 to 1000 nM.
The value for `CSc1sc(-c2ccnc(Nc3cccc(OCCCNCCO)c3)n2)c(C2CCCCC2)c1C#N` [VI-3] was less than 100 nM; that for `CSc1sc(-c2ccnc(Nc3cccc(OCCCN4CCCC4)c3)n2)c(C2CCCCC2)c1C#N` [VI-12] was less than 100 nM; that for `CSc1sc(-c2ccnc(Nc3cccc(OCCCN4CCC[C@H]4CO)c3)n2)c(C2CCCCC2)c1C#N` [VI-6] was less than 100 nM.
In the case of `CSc1sc(-c2ccnc(Nc3cccc(OCCCN4CCN(Cc5ccncc5)CC4)c3)n2)c(C2CCCCC2)c1C#N` [VI-11], the Ki was less than 100 nM.
Under `CSc1sc(-c2ccnc(Nc3cccc(OCCCN4CCCC(O)C4)c3)n2)c(C2CCCCC2)c1C#N` (centres unmarked) [VI-8] stands less than 100 nM; under `N#Cc1c(SCc2ccc(O)cc2)sc(-c2ccnc(Nc3ccccc3)n2)c1-c1ccccc1` [IIa-39, 2-(4-Hydroxy-benzylsulfanyl)-4-phenyl-5-(2-phenylamino-pyrimidin-4-yl)-thiophene-3-carbonitrile], less than 100 nM; under `CSc1sc(-c2ccnc(Nc3cccc(NC(=O)CCC4NC(=O)CNC4=O)c3)n2)c(-c2cccnc2)c1C#N` (centres unmarked) [VI-139], less than 100 nM.
The value for `CSc1sc(-c2ccnc(Nc3cccc(OCCCN4CCC(O)CC4)c3)n2)c(C2CCCCC2)c1C#N` [VI-4] was less than 100 nM; that for `CSc1sc(-c2ccnc(Nc3cccc(O)c3)n2)c(-c2ccccc2)c1C#N` [IIa-40, 5-[2-(3-Hydroxy-phenylamino)-pyrimidin-4-yl]-2-methylsulfanyl-4-phenyl-thiophene-3-carbonitrile] was less than 100 nM.
On to `CSc1sc(-c2ccnc(Nc3cccc(OCCCN4CCN(CCO)CC4)c3)n2)c(-c2cccc(OCc3ccccc3)c2)c1C#N` [VI-126], for which the inhibitory constant (Ki) lay within 100 to 1000 nM.
The value for `CSc1sc(-c2nc(Nc3cccc(N)c3)ncc2C)c(C2CCCCC2)c1C#N` [Compound V-8, 5-[2-(3-Aminophenylamino)-5-methyl-pyrimidin-4-yl]-4-cyclohexyl-2-methylsulfanyl-thiophene-3-carbonitrile] was less than 100 nM; that for `CSc1sc(-c2ccnc(Nc3cccc(OCCCN4CCC(CO)CC4)c3)n2)c(-c2cccc(O)c2)c1C#N` [VI-129] was less than 100 nM.
The value for `CSc1sc(-c2ccnc(Nc3cccc(OCCCN4CCCC4)c3)n2)c(-c2cccnc2)c1C#N` [VI-122] was less than 100 nM; that for `CCN1CCN(CCCOc2cccc(Nc3nccc(-c4sc(SC)c(C#N)c4C4CCCCC4)n3)c2)CC1` [VI-9] was less than 100 nM; that for `CCN(CC)CCC(=O)Nc1cccc(Nc2nccc(-c3sc(SC)c(C#N)c3-c3cccnc3)n2)c1` [VI-140] was less than 100 nM.
As to `CSc1sc(-c2ccnc(Nc3cccc(O)c3)n2)c(-c2cccc(-c3ccncc3)c2)c1C#N` [IIa-105, 5-[2-(3-Hydroxy-phenylamino)-pyrimidin-4-yl]-2-methylsulfanyl-4-(3-pyridin-4-yl-phenyl)-thiophene-3-carbonitrile], the Ki is less than 100 nM.
The value for `CSc1sc(-c2ccnc(Nc3cccc(OCCCn4cnc(C)c4)c3)n2)c(C2CCCCC2)c1C#N` [VI-14] was less than 100 nM; that for `CSc1sc(-c2ccnc(Nc3cccc(OCCCO)c3)n2)c(-c2cccc(OCc3ccccc3)c2)c1C#N` [VI-124] was 100 to 1000 nM; that for `CSc1sc(-c2ccnc(Nc3cccc(NC(=O)CC4CC4)c3)n2)c(-c2cccnc2)c1C#N` [VI-138, 3-cyano-4-(3-pyridyl)-5-[2-(3-N-cyclopropylacetamido)-aminophenylamino]-pyrimidin-4-yl-2-thiomethyl thiophene] was less than 100 nM.
With `CSc1sc(-c2ccnc(Nc3cccc(OCCCN4CCSCC4)c3)n2)c(C2CCCCC2)c1C#N` [VI-16], the Ki is less than 100 nM.
As to `COCCNCCCOc1cccc(Nc2nccc(-c3sc(SC)c(C#N)c3C3CCCCC3)n2)c1` [VI-2], the inhibition constant (Ki) was less than 100 nM.
Under `CSc1sc(-c2ccnc(Nc3cccc(OCCCN4CCNCC4)c3)n2)c(C2CCCCC2)c1C#N` [VI-10] stands less than 100 nM; under `CSc1sc(-c2ccnc(Nc3cccc(OCCCN4CCN(CCO)CC4)c3)n2)c(C2CCCCC2)c1C#N` [VI-7], less than 100 nM; under `CSc1sc(-c2ccnc(Nc3cccc(NC(=O)CCN4CCCCC4)c3)n2)c(-c2cccnc2)c1C#N` [VI-131], less than 100 nM.
Under `CSc1sc(-c2ccnc(Nc3cccc(OCCCN4CCN(CCO)CC4)c3)n2)c(-c2cccc(O)c2)c1C#N` [VI-128] stands less than 100 nM; under `CSc1sc(-c2ccnc(Nc3cccc(OCCCN4CCC(CO)CC4)c3)n2)c(-c2cccc(OCc3ccccc3)c2)c1C#N` [VI-127], 100 to 1000 nM.
Under `CSc1sc(-c2nc(Nc3cccc(O)c3)ncc2C)c(-c2cccnc2)c1C#N` [Compound V-24] stands less than 100 nM.

For the origin of these results see patent publication US6642227B2, “Inhibitors of c-Jun N-terminal kinases (JNK) and other protein kinases” (Vertex Pharmaceuticals Incorporated, priority 2001, dated 2003).
